We go through 30 molecules from ChEMBL document CHEMBL5247664, “Structure-activity relationship of BMS906024 derivatives for Cryptosporidium parvum growth inhibition” (Bioorg Med Chem Lett, 2023).

Assay type in all cases: functional, organism-based
Assay [1] concerns Cryptosporidium parvum. Put plainly: Antiparasitic activity against Cryptosporidium parvum assessed as parasitic growth inhibition measured for 24 hrs.
For assay [2], the system named is Cryptosporidium parvum. Put plainly: Antiparasitic activity against Cryptosporidium parvum infected in human HCT-8 cells assessed as parasitic growth inhibition measured for 48 hrs by fluorescence based microscopic analysis. The note with it: for pEC50: HCT-8, 48 h; for EC90: HCT-8, time 48 hrs.
The subject of assay [3] is Cryptosporidium parvum. The assay can be described thus: Antiparasitic activity against Cryptosporidium parvum infected in human HCT-8 cells assessed as parasitic growth inhibition incubated for 45 mins followed by compound washout further infected in cells and measured after 48 hrs by microscopic analysis.
The test system of assay [4] is Cryptosporidium parvum. The assay can be described thus: Antiparasitic activity against Cryptosporidium parvum assessed as parasitic growth inhibition.

pEC50: −log10 of the molar value.

For the molecule `C[C@H](NC(=O)Cc1cc(F)cc(F)c1)C(=O)N[C@H](C(=O)OC(C)(C)C)c1ccccc1`, the negative-log EC50 (pEC50) in the assay with Cryptosporidium parvum [1] is 4.90.
Turning to `CN1C(=O)[C@H](NC(=O)[C@H](CCC(F)(F)F)CC(=O)N2CCCCC2)N=C(c2ccccc2)c2cc(Cl)c(OC3COC3)cc21`, in the assay on Cryptosporidium parvum [2], the pEC50 was 5.26 and the EC90 was 12800 nM.
With `CN1C(=O)[C@H](NC(=O)[C@H](CCC(F)(F)F)CC(=O)N2CCCCC2)N=C(c2ccccc2)c2ccc(OC3COC3)cc21`, in the assay with Cryptosporidium parvum [2], the negative logarithm of the EC50 (pEC50) was 5.64 and the 90% effect concentration (EC90) was found to be 4900 nM.
In the same order, the values of `COc1ccc2c(c1)N(C)C(=O)[C@@H](NC(=O)[C@H](CCC(F)(F)F)CC(=O)N1CCCCC1)N=C2c1ccccc1` are 7.51 and 66 nM.
In the case of `CN1C(=O)[C@@H](NC(=O)[C@H](CCC(F)(F)F)CC(=O)N2CCCCC2)N=C(c2ccccc2)c2cc(Cl)c(OC3COC3)cc21`, in the assay on Cryptosporidium parvum [2], the pEC50 is 6.49 and the EC90 came to 960 nM.
For `CN1C(=O)[C@@H](NC(=O)[C@H](CCC(F)(F)F)CC(=O)N2CCCCC2)N=C(c2ccccc2)c2ccc(Oc3ccccc3)cc21`, in the assay with Cryptosporidium parvum [2], the negative-log EC50 (pEC50) is 7.60 and the EC90 turned out to be 55 nM.
For the molecule `CCCNC(=O)C[C@@H](CCC(F)(F)F)C(=O)N[C@H]1N=C(c2ccccc2)c2ccc(OC3COC3)cc2N(C)C1=O`, in the assay with Cryptosporidium parvum [2], the pEC50 is 6.46 and the EC90 came out at 970 nM.
In the same order, the values of `CCCNC(=O)C[C@H](CCC(F)(F)F)C(=O)N[C@H]1N=C(c2ccccc2)c2ccccc2N(C)C1=O` are less than 4.60 and more than 25000 nM.
Consider `CCCNC(=O)CCC(=O)N[C@H]1N=C(c2ccccc2)c2ccccc2N(C)C1=O`, for which, in the assay with Cryptosporidium parvum [2], the pEC50 is less than 4.60 and the concentration for an effect of 90% (EC90) is more than 25000 nM.
In the case of `CN1C(=O)[C@@H](NC(=O)[C@H](CCC(F)(F)F)CC(N)=O)N=C(c2ccccc2)c2ccccc21`, in the assay with Cryptosporidium parvum [2], the negative logarithm of the EC50 (pEC50) was less than 4.60 and the EC90 is more than 25000 nM.
Regarding `CN1C(=O)[C@@H](NC(=O)[C@H](CCC(F)(F)F)CC(=O)N2CCCCC2)N=C(c2ccccc2)c2ccc(OC3COC3)cc21`, in the assay on Cryptosporidium parvum [2], the pEC50 is 6.96 and the concentration for an effect of 90% (EC90) was 210 nM.
Regarding `CCN(CC)C(=O)C[C@@H](CCC(F)(F)F)C(=O)N[C@H]1N=C(c2ccccc2)c2ccccc2N(C)C1=O`, the pEC50 in the assay on Cryptosporidium parvum [3] is 6.30. For the same molecule, in the assay with Cryptosporidium parvum [2], the negative logarithm of the EC50 (pEC50) was 6.96 and the 90% effect concentration (EC90) came to 310 nM.
For `CN1C(=O)[C@@H](NC(=O)[C@H](CCC(F)(F)F)CC(=O)N2CCCCC2)N=C(c2ccccc2)c2ccccc21`, in the assay on Cryptosporidium parvum [2], the pEC50 is 8.19 and the EC90 turned out to be 16 nM.
Consider `CN1C(=O)[C@@H](NC(=O)[C@H](CCC(F)(F)F)CC(=O)N2CCOCC2)N=C(c2ccccc2)c2ccccc21`, for which, in the assay on Cryptosporidium parvum [2], the negative-log EC50 (pEC50) was 7.28 and the EC90 is 100 nM.
As to `CCCNC(=O)C(C)(C)CC(=O)N[C@H]1N=C(c2ccccc2)c2ccccc2N(C)C1=O`, in the assay with Cryptosporidium parvum [2], the pEC50 is less than 4.60 and the concentration for an effect of 90% (EC90) is more than 25000 nM.
In the same order, the values of `CCCNC(=O)C[C@@H](CCC(F)(F)F)C(=O)N[C@@H]1N=C(c2ccccc2)c2ccc(OC3COC3)cc2N(C)C1=O` are less than 4.60 and more than 25000 nM.
Take `CCCNC(=O)[C@@H](CCC(F)(F)F)CC(=O)N[C@H]1N=C(c2ccccc2)c2ccccc2N(C)C1=O`: in the assay on Cryptosporidium parvum [2], the pEC50 is less than 4.60 and the EC90 was more than 25000 nM.
Regarding `CCCNC(=O)C[C@@H](CCC(F)(F)F)C(=O)N[C@H]1N=C(c2ccccc2)c2ccc(OC)cc2N(C)C1=O`, in the assay on Cryptosporidium parvum [2], the negative logarithm of the EC50 (pEC50) is 7.09 and the EC90 came out at 150 nM.
Take `CCNC(=O)C[C@@H](CCC(F)(F)F)C(=O)N[C@H]1N=C(c2ccccc2)c2ccccc2N(C)C1=O`: in the assay with Cryptosporidium parvum [2], the negative logarithm of the EC50 (pEC50) was 6.55 and the concentration for an effect of 90% (EC90) came to 610 nM.
As for `CN1C(=O)[C@H](NC(=O)[C@H](CCC(F)(F)F)CC(=O)N2CCCCC2)N=C(c2ccccc2)c2ccc(OC3CCC3)cc21`, in the assay on Cryptosporidium parvum [2], the negative-log EC50 (pEC50) was 5.60 and the EC90 was determined as 11100 nM.
As for `CN1C(=O)[C@@H](NC(=O)C[C@H](CCC(F)(F)F)C(N)=O)N=C(c2ccccc2)c2ccccc21`, in the assay with Cryptosporidium parvum [2], the negative-log EC50 (pEC50) was 4.60 and the EC90 is more than 25000 nM.
As to `CCCNC(=O)CC(C)(C)C(=O)N[C@H]1N=C(c2ccccc2)c2ccccc2N(C)C1=O`, in the assay on Cryptosporidium parvum [2], the pEC50 is less than 4.60 and the 90% effect concentration (EC90) is more than 25000 nM.
In the same order, the values of `CN1C(=O)[C@H](NC(=O)[C@H](CCC(F)(F)F)CC(=O)N2CCCCC2)N=C(c2ccccc2)c2ccc(Oc3ccccc3)cc21` are 5.77 and 3610 nM.
In the case of `CCC[C@H](CC(=O)N1CCCC1)C(=O)N[C@H]1N=C(c2ccccc2)c2ccccc2N(C)C1=O`, in the assay with Cryptosporidium parvum [2], the pEC50 was 6.96 and the EC90 was 230 nM.
For the molecule `CCCN(CCC)C(=O)C[C@@H](CCC(F)(F)F)C(=O)N[C@H]1N=C(c2ccccc2)c2ccccc2N(C)C1=O`, in the assay with Cryptosporidium parvum [2], the pEC50 is 5.84 and the 90% effect concentration (EC90) was 2790 nM.
The corresponding values for `CN1C(=O)[C@@H](NC(=O)[C@H](CCC(F)(F)F)CC(=O)N2CCCCC2)N=C(c2ccccc2)c2ccc(OC3CCC3)cc21` are 7.11 and 160 nM.
Take `CCCNC(=O)C[C@@H](CCC(F)(F)F)C(=O)N[C@H]1N=C(c2ccccc2)c2ccccc2N(C)C1=O`: in the assay on Cryptosporidium parvum [2], the pEC50 is 7.74 and the EC90 stood at 56 nM.
With `CN1C(=O)[C@@H](NC(=O)[C@H](CCC(F)(F)F)CC(=O)OC(C)(C)C)N=C(c2ccccc2)c2ccccc21`, in the assay with Cryptosporidium parvum [2], the pEC50 was 6.26 and the EC90 is 1120 nM.
`CN1C(=O)[C@@H](NC(=O)[C@H](CCC(F)(F)F)[C@H](CCC(F)(F)F)C(N)=O)N=C(c2ccccc2)c2ccccc21` [OSUGACESTAT]: the pEC50 in the assay with Cryptosporidium parvum [2] and in the assay on Cryptosporidium parvum [4] was 8.74 each time. Also, in the assay with Cryptosporidium parvum [2], the concentration for an effect of 90% (EC90) came to 2.3 nM.
Regarding `CC(C)[C@H](O)C(=O)N[C@@H](C)C(=O)N[C@@H]1C(=O)N(C)CCc2ccccc21` [SEMAGACESTAT], the pEC50 in the assay with Cryptosporidium parvum [1] was 5.38.
